In patent US20240425523A1, “Compounds for the Degradation of EGFR Kinase” (Beigene Switzerland GMBH, priority 2023, published 2024):

Tests used:
Assay type in all cases: cell-based
[1] = target: T1, EGFR L858R (BaF3-L858R cells) (Homo sapiens, UniProt P00533, L858R); assay: Cell degradation of EGFR, HTRF assay, BaF3-L858R cells; conditions: 16 h treatment; for DC50: EGFR degradation; for Dmax: maximum percentage of degradation
T1 construct: host or cells: BaF3
Outline: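 EGFR L858R levels measured by HTRF antibody pair in lysed BaF3-L858R cells after 16 h compound exposure (8-point 5-fold series from 10 uM final, 37° C). Degradation is relative to DMSO-only cells; DC50 fitted with Hill equation, Dmax taken as the largest percent loss.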

[2] = target: T2, EGFR-L858R/C797S (H1975-clone #8 cells) (Homo sapiens, UniProt P00533, C797S/L858R); assay: Cell degradation of EGFR, HTRF assay, H1975-clone#8 (L858R/C797S) cells; conditions: 16 h treatment; for DC50: EGFR degradation; for Dmax: maximum percentage of degradation
T2 construct: expressed in transfected cells; host or cells: H1975 (endogenous EGFR knocked out, clone #8)

[3] = target: T3, p-EGFR L858R (BaF3-L858R cells) (Homo sapiens, UniProt P00533, L858R); assay: Cell p-EGFR inhibition assay, HTRF, BaF3-L858R cells; conditions: 16 h treatment; for Imax (%): maximum percentage of pEGFR inhibition; for IC50: pEGFR inhibition
T3 construct: host or cells: BaF3
Outline: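 BaF3-L858R cells treated 16 h at 37 °C, 5% CO2 with compound from 10 uM top, 5-fold dilutions, 8 doses, in 0.1% DMSO medium. Lysates read overnight by HTRF p-EGFR antibodies; IC50 fitted to four-parameter curve against DMSO high control.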

[4] = target: p-EGFR Del19/C797S (H1975-clone #23 cells) (Homo sapiens, UniProt P00533); assay: Cell p-EGFR inhibition assay, HTRF, H1975-clone#23 (DEL19/C797S) cells; conditions: 16 h treatment; for Imax (%): maximum percentage of pEGFR inhibition; for IC50: pEGFR inhibition
Outline: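 Phospho-EGFR read by overnight HTRF on lysates, normalized to DMSO-treated high control; IC50, Hill slope and Imax fitted. Compounds were applied for 16 h (10 uM top, 5-fold steps, 8 doses) to an H1975 single clone carrying only exogenous Del19/C797S EGFR after sgRNA knockout of endogenous copies.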

Row | SMILES | DC50 [1] | Dmax [1] | DC50 [2] | Dmax [2] | Imax (%) [3] | IC50 [3] | Imax (%) [4] | IC50 [4]
1 | Cc1cc2cc(n1)-c1c(C)nn(C)c1OC[C@H]1CC[C@H](C1)CN1/C(=N/C2=O)Nc2ccc(N3CCN(CCC4CCN(c5cc(F)c([C@H]6CCC(=O)NC6=O)c(F)c5)CC4)CC3)cc21 [Example 183, (R)-3-(2,6-difluoro-4-(4-(2-(4-((7^1R,7^3S,E)-1^1,1^3,2^6-trimethyl-3-oxo-5^2,5^3-dihydro-1^1H,5^1H-9-oxa-4-aza-5(2,1)-benzo[d]imidazola-2(2,4)-pyridina-1(4,5)-pyrazola-7(1,3)-cyclopentanacyclononaphane-5^6-yl)piperazin-1-yl)ethyl)piperidin-1-yl)phenyl)piperidine-2,6-dione] | 5.3 nM | 91.6% | 5.83 nM | 91.2% | 98.21% | 5.32 nM | 99.41% | 7.32 nM
2 | Cc1cc2cc(n1)-c1c(C)nn(C)c1OC[C@H]1CC[C@H](C1)CN1/C(=N/C2=O)Nc2ccc(N3CCN(C[C@@H]4CCN(c5cc(F)c([C@H]6CCC(=O)NC6=O)c(F)c5)C4)CC3)cc21 [Example 184, (R)-3-(2,6-difluoro-4-((S)-3-((4-((7^1R,7^3S,E)-1^1,1^3,2^6-trimethyl-3-oxo-5^2,5^3-dihydro-1^1H,5^1H-9-oxa-4-aza-5(2,1)-benzo[d]imidazola-2(2,4)-pyridina-1(4,5)-pyrazola-7(1,3)-cyclopentanacyclononaphane-5^6-yl)piperazin-1-yl)methyl)pyrrolidin-1-yl)phenyl)piperidine-2,6-dione] | 4.99 nM | 90.1% | 3.16 nM | 89.3% | 91.67% | 1.25 nM | 100.52% | 2.48 nM
3 | CC[C@@H]1CN(c2ccc3c(c2)N2C[C@@H]4CC[C@H](COc5c(c(C)nn5C)-c5cc(cc(C)n5)C(=O)/N=C/2N3)C4)CCN1C1CCN(c2cc(F)c([C@H]3CCC(=O)NC3=O)c(F)c2)CC1 [Example 188, (R)-3-(4-(4-((R)-2-ethyl-4-((7^1R,7^3S,E)-1^1,1^3,2^6-trimethyl-3-oxo-5^2,5^3-dihydro-1^1H,5^1H-9-oxa-4-aza-5(2,1)-benzo[d]imidazola-2(2,4)-pyridina-1(4,5)-pyrazola-7(1,3)-cyclopentanacyclononaphane-5^6-yl)piperazin-1-yl)piperidin-1-yl)-2,6-difluorophenyl)piperidine-2,6-dione] | 4.2 nM | 93.2% | 3.78 nM | 84.9% | 90.67% | < 0.128 nM | 99.79% | 1.95 nM
4 | CC[C@H]1CN(c2ccc3c(c2)N2C[C@@H]4CC[C@H](COc5c(c(C)nn5C)-c5cc(cc(C)n5)C(=O)/N=C/2N3)C4)CCN1C1CCN(c2cc(F)c([C@H]3CCC(=O)NC3=O)c(F)c2)CC1 [Example 189, (R)-3-(4-(4-((S)-2-ethyl-4-((7^1R,7^3S,E)-1^1,1^3,2^6-trimethyl-3-oxo-5^2,5^3-dihydro-1^1H,5^1H-9-oxa-4-aza-5(2,1)-benzo[d]imidazola-2(2,4)-pyridina-1(4,5)-pyrazola-7(1,3)-cyclopentanacyclononaphane-5^6-yl)piperazin-1-yl)piperidin-1-yl)-2,6-difluorophenyl)piperidine-2,6-dione] | 4.4 nM | 87.6% | 2.38 nM | 90.2% | 92.5% | < 0.128 nM | 100.03% | 2.11 nM
5 | Cc1cc2cc(n1)-c1c(C)nn(C)c1OC[C@H]1CC[C@H](C1)CN1/C(=N/C2=O)Nc2ccc(N3CCN(C4CCN(c5cc(F)c([C@H]6CCC(=O)NC6=O)c(F)c5)CC4)C[C@H]3C)cc21 [Example 190, (R)-3-(2,6-difluoro-4-(4-((R)-3-methyl-4-((7^1R,7^3S,E)-1^1,1^3,2^6-trimethyl-3-oxo-5^2,5^3-dihydro-1^1H,5^1H-9-oxa-4-aza-5(2,1)-benzo[d]imidazola-2(2,4)-pyridina-1(4,5)-pyrazola-7(1,3)-cyclopentanacyclononaphane-5^6-yl)piperazin-1-yl)piperidin-1-yl)phenyl)piperidine-2,6-dione] | 3.11 nM | 88.2% | 1.69 nM | 94.9% | 91.5% | 0.58 nM | 100.67% | 1.2 nM
6 | Cc1cc2cc(n1)-c1c(C)nn(C)c1OC[C@H]1CC[C@H](C1)CN1/C(=N/C2=O)Nc2ccc(N3C[C@H](C)N(C4CCN(c5cc(F)c([C@H]6CCC(=O)NC6=O)c(F)c5)CC4)C[C@H]3C)cc21 [Example 191, (R)-3-(4-(4-((2S,5R)-2,5-dimethyl-4-((7^1R,7^3S,E)-1^1,1^3,2^6-trimethyl-3-oxo-5^2,5^3-dihydro-1^1H,5^1H-9-oxa-4-aza-5(2,1)-benzo[d]imidazola-2(2,4)-pyridina-1(4,5)-pyrazola-7(1,3)-cyclopentanacyclononaphane-5^6-yl)piperazin-1-yl)piperidin-1-yl)-2,6-difluorophenyl)piperidine-2,6-dione] | 2.94 nM | 89.3% | 0.73 nM | 88.7% | 90.84% | 0.528 nM | 99.88% | 0.769 nM
7 | Cc1cc2cc(n1)-c1c(C)nn(C)c1OC[C@H]1CC[C@H](C1)CN1/C(=N/C2=O)Nc2ccc(N3CCN(C4CCN(c5cc(F)c([C@H]6CCC(=O)NC6=O)c(F)c5)CC4)[C@H](C)C3)cc21 [Example 192, (R)-3-(2,6-difluoro-4-(4-((R)-2-methyl-4-((7^1R,7^3S,E)-1^1,1^3,2^6-trimethyl-3-oxo-5^2,5^3-dihydro-1^1H,5^1H-9-oxa-4-aza-5(2,1)-benzo[d]imidazola-2(2,4)-pyridina-1(4,5)-pyrazola-7(1,3)-cyclopentanacyclononaphane-5^6-yl)piperazin-1-yl)piperidin-1-yl)phenyl)piperidine-2,6-dione] | 2.42 nM | 87.9% | 1.01 nM | 88.8% | 89.34% | 1.53 nM | 99.96% | 1.39 nM
8 | Cc1cc2cc(n1)-c1c(C)nn(C)c1OC[C@H]1CC[C@H](C1)CN1/C(=N/C2=O)Nc2ccc(N3CC4CCC3CN4C3CCN(c4cc(F)c([C@H]5CCC(=O)NC5=O)c(F)c4)CC3)cc21 [Example 193, (3R)-3-(2,6-difluoro-4-(4-(5-((7^1R,7^3S,E)-1^1,1^3,2^6-trimethyl-3-oxo-5^2,5^3-dihydro-1^1H,5^1H-9-oxa-4-aza-5(2,1)-benzo[d]imidazola-2(2,4)-pyridina-1(4,5)-pyrazola-7(1,3)-cyclopentanacyclononaphane-5^6-yl)-2,5-diazabicyclo[2.2.2]octan-2-yl)piperidin-1-yl)phenyl)piperidine-2,6-dione] | 7.4 nM | 76.2% | 0.76 nM | 70.8% | 101.04% | 2.35 nM | 100.43% | 2.74 nM
9 | Cc1cc2cc(n1)-c1c(C)nn(C)c1OC[C@H]1CC[C@H](C1)CN1/C(=N/C2=O)Nc2ccc(N3CCN(C4CCN(c5cc(F)c([C@H]6CCC(=O)NC6=O)c(F)c5)CC4)C[C@@H]3C)cc21 [Example 195, (R)-3-(2,6-difluoro-4-(4-((S)-3-methyl-4-((7^1R,7^3S,E)-1^1,1^3,2^6-trimethyl-3-oxo-5^2,5^3-dihydro-1^1H,5^1H-9-oxa-4-aza-5(2,1)-benzo[d]imidazola-2(2,4)-pyridina-1(4,5)-pyrazola-7(1,3)-cyclopentanacyclononaphane-5^6-yl)piperazin-1-yl)piperidin-1-yl)phenyl)piperidine-2,6-dione] | 1.83 nM | 90.9% | 1.13 nM | 93.9% | 90.34% | < 0.128 nM | 99.96% | 1.44 nM
10 | Cc1cc2cc(n1)-c1c(C)nn(C)c1OC[C@H]1CC[C@H](C1)CN1/C(=N/C2=O)Nc2ccc(N3C[C@@H](C)N(C4CCN(c5cc(F)c([C@H]6CCC(=O)NC6=O)c(F)c5)CC4)C[C@H]3C)cc21 [Example 196, (R)-3-(4-(4-((2R,5R)-2,5-dimethyl-4-((7^1R,7^3S,E)-1^1,1^32^6-trimethyl-3-oxo-5^2,5^3-dihydro-1^1H,5^1H-9-oxa-4-aza-5(2,1)-benzo[d]imidazola-2(2,4)-pyridina-1(4,5)-pyrazola-7(1,3)-cyclopentanacyclononaphane-5^6-yl)piperazin-1-yl)piperidin-1-yl)-2,6-difluorophenyl)piperidine-2,6-dione] | 1.61 nM | 91.9% | 3.21 nM | 88.8% | 85.84% | 3.09 nM | 99.76% | 2.81 nM
